{"source": "ChEMBL document CHEMBL4834480", "about": "“Discovery of 3,5-Dimethyl-4-Sulfonyl-1H-Pyrrole-Based Myeloid Cell Leukemia 1 Inhibitors with High Affinity, Selectivity, and Oral Bioavailability” (J Med Chem, 2021)", "key": {"[1]": {"target": "Induced myeloid leukemia cell differentiation protein Mcl-1 (Homo sapiens, UniProt Q07820)", "sequence (Q07820 whole entry, the tested form may be a part)": "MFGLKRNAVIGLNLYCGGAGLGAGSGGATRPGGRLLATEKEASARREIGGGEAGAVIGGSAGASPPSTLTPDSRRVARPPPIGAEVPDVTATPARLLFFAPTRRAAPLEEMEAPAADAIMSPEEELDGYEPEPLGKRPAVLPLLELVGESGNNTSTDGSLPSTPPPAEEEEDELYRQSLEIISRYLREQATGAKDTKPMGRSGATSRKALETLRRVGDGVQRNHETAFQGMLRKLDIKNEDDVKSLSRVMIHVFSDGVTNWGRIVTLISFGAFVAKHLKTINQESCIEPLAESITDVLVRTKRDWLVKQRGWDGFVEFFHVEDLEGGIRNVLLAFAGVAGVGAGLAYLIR", "assay": "Inhibition of FITC-labeled Bak BH3 peptide binding to GST-tagged MCL1 (171 to 327 residues) (unknown origin) expressed in Escherichia coli BL21 (DE3) incubated for 30 mins fluorescence polarization-based competitive binding assay"}, "Bcl-2-like protein 1": {"target": "Bcl-2-like protein 1 (Homo sapiens, UniProt Q07817)", "sequence (Q07817 whole entry)": "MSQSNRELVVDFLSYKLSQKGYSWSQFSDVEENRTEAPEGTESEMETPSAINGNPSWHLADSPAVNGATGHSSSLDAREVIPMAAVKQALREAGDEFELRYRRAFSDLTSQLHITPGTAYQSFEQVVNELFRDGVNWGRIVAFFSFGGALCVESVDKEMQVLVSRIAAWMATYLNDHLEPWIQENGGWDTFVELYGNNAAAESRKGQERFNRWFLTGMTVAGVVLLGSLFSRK", "assay": "Inhibition of BCL-XL(unknown origin) at 10 uM incubated for 120 mins by TR-FRET assay relative to control"}, "[2]": {"target": "Apoptosis regulator Bcl-2 (Homo sapiens, UniProt P10415)", "sequence (P10415 whole entry, the tested form may be a part)": "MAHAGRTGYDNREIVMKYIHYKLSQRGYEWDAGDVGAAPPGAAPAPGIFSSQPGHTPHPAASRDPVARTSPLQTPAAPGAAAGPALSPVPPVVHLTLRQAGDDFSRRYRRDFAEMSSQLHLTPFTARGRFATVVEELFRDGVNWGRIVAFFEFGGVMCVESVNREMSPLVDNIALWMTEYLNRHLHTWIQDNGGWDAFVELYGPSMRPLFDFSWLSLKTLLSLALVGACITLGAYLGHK", "assay": "Inhibition of FITC-labeled Bak BH3 peptide binding to GST-tagged BCL2 (1 to 205 residues) (unknown origin) expressed in Escherichia coli BL21 (DE3) at 10 uM incubated for 30 mins fluorescence polarization-based competitive binding assay relative to control"}, "[3]": {"target": "T1, Bcl-2-related protein A1 (Homo sapiens) (UniProt Q16548)", "T1 sequence (whole entry)": "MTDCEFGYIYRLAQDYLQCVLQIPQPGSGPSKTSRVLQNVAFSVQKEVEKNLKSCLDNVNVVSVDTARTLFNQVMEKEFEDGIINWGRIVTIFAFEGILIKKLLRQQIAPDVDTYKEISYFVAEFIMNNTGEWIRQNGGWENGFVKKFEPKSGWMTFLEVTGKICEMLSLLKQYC", "assay": "Inhibition of FITC-labeled Bak BH3 peptide binding to GST-tagged BFL1 (1 to 151 residues) (unknown origin) expressed in Escherichia coli BL21 (DE3) at 10 uM incubated for 30 mins fluorescence polarization-based competitive binding assay relative to control"}, "NCI-H929": {"tested_on": "NCI-H929", "assay": "Antiproliferative activity against human NCI-H929 cells assessed as decrease in cell viability measured after 72 hrs by MTT assay", "type": "functional, cell-based", "conditions": "NCI-H929, 72 h"}, "MV4-11": {"tested_on": "MV4-11", "assay": "Antiproliferative activity against human MV4-11 cells assessed as decrease in cell viability measured after 72 hrs by MTT assay", "type": "functional, cell-based", "conditions": "MV4-11, 72 h"}, "SK-BR-3": {"tested_on": "SK-BR-3", "assay": "Antiproliferative activity against human SK-BR-3 cells assessed as decrease in cell viability measured after 72 hrs by MTT assay", "type": "functional, cell-based", "conditions": "SK-BR-3, 72 h"}, "NCI-H23": {"tested_on": "NCI-H23", "assay": "Antiproliferative activity against human NCI-H23 cells assessed as decrease in cell viability measured after 72 hrs by MTT assay", "type": "functional, cell-based", "conditions": "NCI-H23, 72 h"}, "K562": {"tested_on": "K562", "assay": "Antiproliferative activity against human K562 cells assessed as decrease in cell viability measured after 72 hrs by MTT assay", "type": "functional, cell-based", "conditions": "K562, 72 h"}}}
{"compound": "Cc1cc(OCCCn2c(C)c(S(=O)(=O)c3ccncc3)c(C)c2C(=O)O)cc(C)c1Cl", "values": [{"measurement": "Ki", "setting": "[1]", "result": 0.9, "unit": "µM"}]}
{"compound": "CCc1ccc(S(=O)(=O)c2c(C)c(C(=O)O)n(CCCOc3cc(C)c(Cl)c(C)c3)c2C)cc1", "values": [{"measurement": "inhibition", "setting": "Bcl-2-like protein 1", "result": 36, "unit": "%"}, {"measurement": "Ki", "setting": "[1]", "result": 0.07, "unit": "µM"}, {"measurement": "inhibition", "setting": "[2]", "result": 12.4, "unit": "%"}, {"measurement": "inhibition", "setting": "[3]", "result": 8.77, "unit": "%"}, {"measurement": "IC50", "setting": "NCI-H929", "result": 0.49, "unit": "µM"}, {"measurement": "IC50", "setting": "MV4-11", "result": 2.59, "unit": "µM"}, {"measurement": "IC50", "setting": "SK-BR-3", "result": 3.92, "unit": "µM"}, {"measurement": "IC50", "setting": "NCI-H23", "result": 5.41, "unit": "µM"}, {"measurement": "IC50", "setting": "K562", "result": "> 30", "unit": "µM"}]}
{"compound": "Cc1cc(OCCCn2c(C)c(S(=O)(=O)c3ccc([N+](=O)[O-])cc3)c(C)c2C(=O)O)cc(C)c1Cl", "values": [{"measurement": "Ki", "setting": "[1]", "result": 0.42, "unit": "µM"}]}
{"compound": "Cc1cc(OCCCn2c(C)c(S(=O)(=O)c3ccc(Cl)cc3)c(C)c2C(=O)O)cc(C)c1Cl", "values": [{"measurement": "Ki", "setting": "[1]", "result": 0.18, "unit": "µM"}]}
{"compound": "Cc1ccc(S(=O)(=O)c2c(C)c(C(=O)O)n(CCCOc3cc(C)c(Cl)c(C)c3)c2CC(C)C)cc1", "values": [{"measurement": "Ki", "setting": "[1]", "result": 1.6, "unit": "µM"}]}
{"compound": "CCc1c(S(=O)(=O)c2ccc(C)cc2)c(C)c(C(=O)O)n1CCCOc1cc(C)c(Cl)c(C)c1", "values": [{"measurement": "Ki", "setting": "[1]", "result": 2.49, "unit": "µM"}]}
{"compound": "Cc1cc(OCCCn2c(C)c(S(=O)(=O)c3cccc4ccccc34)c(C)c2C(=O)O)cc(C)c1Cl", "values": [{"measurement": "Ki", "setting": "[1]", "result": 0.36, "unit": "µM"}]}
{"compound": "Cc1ccc(S(=O)(=O)c2cn(CCCOc3cc(C)c(Cl)c(C)c3)c(C(=O)O)c2C)cc1", "values": [{"measurement": "Ki", "setting": "[1]", "result": 0.81, "unit": "µM"}]}
{"compound": "Cc1cc(OCCCn2c(C)c(S(=O)(=O)c3ccc(Oc4ccccc4)cc3)c(C)c2C(=O)O)cc(C)c1Cl", "values": [{"measurement": "Ki", "setting": "[1]", "result": 0.2, "unit": "µM"}]}
{"compound": "Cc1cc(OCCCn2c(C)c(S(=O)(=O)Cc3ccccc3)c(C)c2C(=O)O)cc(C)c1Cl", "values": [{"measurement": "Ki", "setting": "[1]", "result": 2, "unit": "µM"}]}
{"compound": "COc1cccc(S(=O)(=O)c2c(C)c(C(=O)O)n(CCCOc3cc(C)c(Cl)c(C)c3)c2C)c1", "values": [{"measurement": "Ki", "setting": "[1]", "result": 0.2, "unit": "µM"}]}
{"compound": "Cc1ccc(Sc2c(C)c(C(=O)O)n(CCCOc3cc(C)c(Cl)c(C)c3)c2C)cc1", "values": [{"measurement": "Ki", "setting": "[1]", "result": 0.68, "unit": "µM"}]}
{"compound": "Cc1ccc(S(=O)(=O)Nc2cc(C(=O)O)n(CCCOc3cc(C)c(Cl)c(C)c3)c2)cc1", "values": [{"measurement": "Ki", "setting": "[1]", "result": "> 10", "unit": "µM"}]}
{"compound": "Cc1ccc(CNc2cc(C(=O)O)n(CCCOc3cc(C)c(Cl)c(C)c3)c2)cc1", "values": [{"measurement": "Ki", "setting": "[1]", "result": "> 10", "unit": "µM"}]}
{"compound": "CC(=O)c1ccccc1S(=O)(=O)c1c(C)c(C(=O)O)n(CCCOc2cc(C)c(Cl)c(C)c2)c1C", "values": [{"measurement": "Ki", "setting": "[1]", "result": 0.5, "unit": "µM"}]}
{"compound": "Cc1cc(OCCCn2c(C)c(S(=O)(=O)c3ccccn3)c(C)c2C(=O)O)cc(C)c1Cl", "values": [{"measurement": "Ki", "setting": "[1]", "result": 1.9, "unit": "µM"}]}
{"compound": "Cc1cc(OCCCn2c(C)c(S(=O)(=O)c3c(C)cccc3C)c(C)c2C(=O)O)cc(C)c1Cl", "values": [{"measurement": "Ki", "setting": "[1]", "result": "> 10", "unit": "µM"}]}
{"compound": "Cc1cc(OCCCn2c(C)c(S(=O)(=O)C3CCCCC3)c(C)c2C(=O)O)cc(C)c1Cl", "values": [{"measurement": "Ki", "setting": "[1]", "result": "> 10", "unit": "µM"}]}
{"compound": "CCc1c(S(=O)(=O)c2ccc(C)cc2)c(C)n(CCCOc2cc(C)c(Cl)c(C)c2)c1C(=O)O", "values": [{"measurement": "Ki", "setting": "[1]", "result": 0.12, "unit": "µM"}]}
{"compound": "Cc1ccc(S(=O)(=O)c2cc(C(=O)O)n(CCCOc3cc(C)c(Cl)c(C)c3)c2)cc1", "values": [{"measurement": "Ki", "setting": "[1]", "result": 0.47, "unit": "µM"}]}
{"compound": "CCc1c(S(=O)(=O)c2ccc(C)cc2)c(CC)n(CCCOc2cc(C)c(Cl)c(C)c2)c1C(=O)O", "values": [{"measurement": "Ki", "setting": "[1]", "result": 1.93, "unit": "µM"}]}
{"compound": "Cc1ccc(C(=O)c2cc(C(=O)O)n(CCCOc3cc(C)c(Cl)c(C)c3)c2)cc1", "values": [{"measurement": "Ki", "setting": "[1]", "result": 0.7, "unit": "µM"}]}
{"compound": "Cc1cc(OCCCn2c(C)c(S(=O)(=O)c3ccc(O)cc3)c(C)c2C(=O)O)cc(C)c1Cl", "values": [{"measurement": "Ki", "setting": "[1]", "result": 0.018, "unit": "µM"}, {"measurement": "IC50", "setting": "NCI-H929", "result": 1.39, "unit": "µM"}, {"measurement": "IC50", "setting": "MV4-11", "result": 2.02, "unit": "µM"}, {"measurement": "IC50", "setting": "SK-BR-3", "result": 7.02, "unit": "µM"}, {"measurement": "IC50", "setting": "NCI-H23", "result": 2.16, "unit": "µM"}, {"measurement": "IC50", "setting": "K562", "result": 14.8, "unit": "µM"}]}
{"compound": "Cc1cc(C)cc(S(=O)(=O)c2c(C)c(C(=O)O)n(CCCOc3cc(C)c(Cl)c(C)c3)c2C)c1", "values": [{"measurement": "Ki", "setting": "[1]", "result": "> 10", "unit": "µM"}]}
